Experimental data published in patent publication US7074789B2, “Kinase inhibitors” (Amgen Inc., priority 1999, dated 2006).

What was measured:
Format in all cases: biochemical
ErbB2 = target: T1, ErbB2 (Homo sapiens, UniProt P04626); assay: Kinase inhibition assay (33P transfer), ErbB2; details: read-out: ErbB2-2
T1 construct: Kinases are expressed as either kinase domains or full length constructs; made in house
Outline: (§1)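 Each enzyme, purified to near homogeneity by affinity chromatography, was incubated with ATP carrying 33P and a substrate polymer fixed to the plate. Unbound label was removed with dilute phosphoric acid (0.5%) before adding scintillant and counting. Potency is given as the compound level cutting label uptake by 50%.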

AKT = target: T2, AKT (Homo sapiens, UniProt Q9Y243); assay: Kinase inhibition assay (33P transfer), AKT; details: Table 2, class symbols A-E; read-out: AKT3-1
T2 construct: Kinases are expressed as either kinase domains or full length constructs; made in house
T2 sequence (Q9Y243 whole entry, the tested form may be a part): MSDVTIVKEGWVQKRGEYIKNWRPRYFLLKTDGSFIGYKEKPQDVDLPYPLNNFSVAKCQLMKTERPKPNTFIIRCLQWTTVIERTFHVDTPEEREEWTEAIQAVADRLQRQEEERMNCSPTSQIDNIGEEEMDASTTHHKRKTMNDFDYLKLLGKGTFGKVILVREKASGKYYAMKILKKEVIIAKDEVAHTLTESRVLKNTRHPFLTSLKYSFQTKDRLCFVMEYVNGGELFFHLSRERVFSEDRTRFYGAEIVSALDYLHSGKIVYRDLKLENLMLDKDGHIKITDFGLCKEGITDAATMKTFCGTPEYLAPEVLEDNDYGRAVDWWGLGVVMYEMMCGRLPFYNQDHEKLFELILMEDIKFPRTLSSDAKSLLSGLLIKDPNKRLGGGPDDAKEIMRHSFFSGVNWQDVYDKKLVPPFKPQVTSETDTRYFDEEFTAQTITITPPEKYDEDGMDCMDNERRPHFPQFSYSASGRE
Outline: (§2)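 GST/His-tagged kinase (domain or full length; E. coli or baculovirus) + [33P]ATP on plates coated with poly(Glu,Tyr) 4:1 or poly(Arg,Ser) 3:1; incubate, wash 0.5% H3PO4, add scintillant, count.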

EGFR = target: T3, EGFR (Homo sapiens, UniProt P00533); assay: Kinase inhibition assay (33P transfer), EGFR; details: Table 2, class symbols A-E; read-out: EGFR-1
T3 construct: Kinases are expressed as either kinase domains or full length constructs; made in house
Outline: as §1

PDGFRB = target: T4, PDGFRB (Homo sapiens, UniProt P09619); assay: Kinase inhibition assay (33P transfer), PDGFRB; details: read-out: PDGFRB-1
T4 construct: Kinases are expressed as either kinase domains or full length constructs; made in house
T4 sequence (P09619 33-1106, species assumed): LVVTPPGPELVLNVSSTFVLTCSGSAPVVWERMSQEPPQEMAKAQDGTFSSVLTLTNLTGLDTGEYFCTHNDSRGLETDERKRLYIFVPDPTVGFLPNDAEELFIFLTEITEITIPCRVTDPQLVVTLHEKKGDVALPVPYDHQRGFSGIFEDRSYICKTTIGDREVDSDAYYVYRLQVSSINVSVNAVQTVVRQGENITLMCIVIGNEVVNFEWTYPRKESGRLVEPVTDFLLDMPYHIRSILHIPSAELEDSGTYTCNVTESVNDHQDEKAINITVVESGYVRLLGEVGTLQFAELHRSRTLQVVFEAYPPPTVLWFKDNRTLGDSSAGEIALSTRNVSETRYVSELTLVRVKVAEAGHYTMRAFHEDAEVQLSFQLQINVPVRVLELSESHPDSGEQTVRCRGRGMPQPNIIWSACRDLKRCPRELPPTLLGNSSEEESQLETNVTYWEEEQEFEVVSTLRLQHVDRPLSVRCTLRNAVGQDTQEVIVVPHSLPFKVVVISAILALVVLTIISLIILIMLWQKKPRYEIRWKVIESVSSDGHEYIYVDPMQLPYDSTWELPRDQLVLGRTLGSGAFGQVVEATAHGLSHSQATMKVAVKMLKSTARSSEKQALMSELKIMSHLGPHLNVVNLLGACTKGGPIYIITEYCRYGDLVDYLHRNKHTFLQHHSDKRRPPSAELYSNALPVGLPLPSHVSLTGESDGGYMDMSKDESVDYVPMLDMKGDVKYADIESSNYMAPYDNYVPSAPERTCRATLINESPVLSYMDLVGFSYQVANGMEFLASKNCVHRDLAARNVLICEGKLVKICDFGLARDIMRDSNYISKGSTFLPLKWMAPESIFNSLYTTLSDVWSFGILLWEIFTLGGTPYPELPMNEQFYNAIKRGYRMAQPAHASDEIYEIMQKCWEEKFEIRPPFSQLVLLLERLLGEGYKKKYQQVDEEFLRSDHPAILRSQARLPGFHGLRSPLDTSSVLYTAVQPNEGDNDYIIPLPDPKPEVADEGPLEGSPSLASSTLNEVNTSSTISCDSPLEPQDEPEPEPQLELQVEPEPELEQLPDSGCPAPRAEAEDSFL

Kdr = target: T5, Kdr (Homo sapiens, UniProt P35968); assay: Kinase inhibition assay (33P transfer), Kdr; details: Table 3, class symbols; read-out: KDR-1
T5 construct: Kinases are expressed as either kinase domains or full length constructs; made in house
Outline: as §2

Zap-70 = target: T6, Zap-70 (Homo sapiens, UniProt P43403); assay: Kinase inhibition assay (33P transfer), Zap-70; details: Table 3, class symbols; read-out: Zap-1
T6 construct: Kinases are expressed as either kinase domains or full length constructs; made in house
T6 sequence (P43403 1-619): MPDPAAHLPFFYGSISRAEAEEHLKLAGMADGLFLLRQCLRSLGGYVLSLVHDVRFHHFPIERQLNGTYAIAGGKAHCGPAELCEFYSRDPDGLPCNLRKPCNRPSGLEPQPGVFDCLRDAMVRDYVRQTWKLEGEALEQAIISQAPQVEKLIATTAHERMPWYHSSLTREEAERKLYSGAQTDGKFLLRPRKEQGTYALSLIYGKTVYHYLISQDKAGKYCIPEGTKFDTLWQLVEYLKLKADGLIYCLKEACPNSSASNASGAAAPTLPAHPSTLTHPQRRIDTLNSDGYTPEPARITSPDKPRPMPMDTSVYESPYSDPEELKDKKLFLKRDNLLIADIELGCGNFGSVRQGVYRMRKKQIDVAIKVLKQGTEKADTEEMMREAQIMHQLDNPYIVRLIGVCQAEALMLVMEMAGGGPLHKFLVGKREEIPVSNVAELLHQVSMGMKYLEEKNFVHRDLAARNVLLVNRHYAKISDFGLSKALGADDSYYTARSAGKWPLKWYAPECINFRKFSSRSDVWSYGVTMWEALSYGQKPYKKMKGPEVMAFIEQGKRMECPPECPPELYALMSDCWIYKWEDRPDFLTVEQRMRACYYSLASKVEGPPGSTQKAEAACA
Outline: as §2

IGFR-1 = target: T7, IGFR-1 (Homo sapiens, UniProt P08069); assay: Kinase inhibition assay (33P transfer), IGFR-1; details: Table 2, class symbols A-E
T7 construct: Kinases are expressed as either kinase domains or full length constructs; made in house
T7 sequence (P08069 31-1367): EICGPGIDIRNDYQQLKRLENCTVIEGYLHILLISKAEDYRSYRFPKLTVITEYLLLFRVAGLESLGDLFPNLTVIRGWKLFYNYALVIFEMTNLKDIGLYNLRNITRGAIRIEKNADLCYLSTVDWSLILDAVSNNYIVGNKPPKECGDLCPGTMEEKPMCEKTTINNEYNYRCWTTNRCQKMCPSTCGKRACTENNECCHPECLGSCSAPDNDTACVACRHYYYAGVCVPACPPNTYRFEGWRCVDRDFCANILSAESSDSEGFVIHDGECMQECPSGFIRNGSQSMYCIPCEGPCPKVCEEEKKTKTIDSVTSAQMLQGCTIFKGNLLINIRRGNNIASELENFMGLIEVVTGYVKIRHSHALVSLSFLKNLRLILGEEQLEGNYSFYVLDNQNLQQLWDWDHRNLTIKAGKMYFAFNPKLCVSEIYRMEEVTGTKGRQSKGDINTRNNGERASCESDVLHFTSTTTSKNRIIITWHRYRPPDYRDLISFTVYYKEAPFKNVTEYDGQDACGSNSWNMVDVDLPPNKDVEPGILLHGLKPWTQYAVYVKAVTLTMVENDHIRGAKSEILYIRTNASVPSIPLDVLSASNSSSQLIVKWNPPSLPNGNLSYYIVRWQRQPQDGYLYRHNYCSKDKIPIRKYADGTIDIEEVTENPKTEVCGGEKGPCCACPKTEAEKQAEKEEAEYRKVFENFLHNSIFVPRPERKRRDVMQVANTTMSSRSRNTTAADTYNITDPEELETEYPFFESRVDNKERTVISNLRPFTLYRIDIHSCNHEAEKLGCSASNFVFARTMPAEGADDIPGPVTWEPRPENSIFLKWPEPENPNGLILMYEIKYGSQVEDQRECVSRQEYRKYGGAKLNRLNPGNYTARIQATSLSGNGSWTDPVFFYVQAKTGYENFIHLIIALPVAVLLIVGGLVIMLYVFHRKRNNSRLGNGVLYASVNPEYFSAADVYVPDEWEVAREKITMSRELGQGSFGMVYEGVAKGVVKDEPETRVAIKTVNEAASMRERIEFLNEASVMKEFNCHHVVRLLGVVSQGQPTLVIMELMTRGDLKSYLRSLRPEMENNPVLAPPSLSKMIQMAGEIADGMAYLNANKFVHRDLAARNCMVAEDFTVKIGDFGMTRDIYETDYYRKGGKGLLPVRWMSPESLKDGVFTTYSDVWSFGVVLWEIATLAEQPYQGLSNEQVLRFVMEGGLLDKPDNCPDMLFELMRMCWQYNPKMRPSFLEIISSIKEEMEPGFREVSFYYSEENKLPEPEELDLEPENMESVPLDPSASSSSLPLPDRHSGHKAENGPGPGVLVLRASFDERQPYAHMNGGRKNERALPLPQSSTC

Itk = target: T8, Itk (Homo sapiens, UniProt Q08881); assay: Kinase inhibition assay (33P transfer), Itk; details: Table 3, class symbols; read-out: Itk-1
T8 construct: Kinases are expressed as either kinase domains or full length constructs; made in house
T8 sequence (Q08881 1-620): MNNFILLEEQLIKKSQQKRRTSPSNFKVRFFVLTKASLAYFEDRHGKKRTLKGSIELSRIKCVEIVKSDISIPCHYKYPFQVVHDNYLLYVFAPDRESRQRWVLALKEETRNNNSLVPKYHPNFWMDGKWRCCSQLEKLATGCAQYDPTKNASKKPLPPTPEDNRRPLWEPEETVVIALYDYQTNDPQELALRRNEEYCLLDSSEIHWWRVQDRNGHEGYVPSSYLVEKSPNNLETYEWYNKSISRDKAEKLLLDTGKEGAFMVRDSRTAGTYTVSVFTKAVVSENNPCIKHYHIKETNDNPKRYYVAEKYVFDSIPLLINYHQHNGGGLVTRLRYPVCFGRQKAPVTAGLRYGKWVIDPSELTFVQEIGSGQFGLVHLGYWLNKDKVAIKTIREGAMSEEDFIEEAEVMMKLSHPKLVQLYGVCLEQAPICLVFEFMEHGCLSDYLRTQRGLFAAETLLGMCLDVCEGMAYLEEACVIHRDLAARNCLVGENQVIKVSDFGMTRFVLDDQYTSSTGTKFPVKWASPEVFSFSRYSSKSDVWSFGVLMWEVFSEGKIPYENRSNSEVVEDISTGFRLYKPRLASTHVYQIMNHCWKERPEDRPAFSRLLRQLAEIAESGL
Outline: as §1

Lck = target: T9, Lck (Homo sapiens, UniProt P06239); assay: Kinase inhibition assay (33P transfer), Lck; details: Table 3, class symbols; read-out: Lck-1
T9 construct: Kinases are expressed as either kinase domains or full length constructs; made in house
T9 sequence (P06239 whole entry, species assumed, the tested form may be a part): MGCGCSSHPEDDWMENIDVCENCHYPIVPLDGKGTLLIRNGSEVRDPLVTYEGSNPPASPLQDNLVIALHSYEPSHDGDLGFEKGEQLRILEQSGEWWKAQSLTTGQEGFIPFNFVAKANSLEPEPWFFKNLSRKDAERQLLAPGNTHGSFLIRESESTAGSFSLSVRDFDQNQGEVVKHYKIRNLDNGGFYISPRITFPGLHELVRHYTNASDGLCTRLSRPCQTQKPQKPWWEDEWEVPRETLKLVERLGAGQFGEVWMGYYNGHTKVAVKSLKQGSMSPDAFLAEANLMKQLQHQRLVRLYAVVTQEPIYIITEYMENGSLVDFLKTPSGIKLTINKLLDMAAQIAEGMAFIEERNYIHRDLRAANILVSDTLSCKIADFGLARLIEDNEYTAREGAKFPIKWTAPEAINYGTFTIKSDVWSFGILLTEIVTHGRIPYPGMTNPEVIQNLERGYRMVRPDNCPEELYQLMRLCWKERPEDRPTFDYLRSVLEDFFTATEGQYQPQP
Outline: as §2

c-Met = target: T10, c-Met (Homo sapiens, UniProt P08581); assay: Kinase inhibition assay (33P transfer), c-Met; details: Table 2, class symbols A-E; read-out: Met-1
T10 construct: Kinases are expressed as either kinase domains or full length constructs; made in house
Outline: as §1

T1 sequence (P04626 23-1255, species assumed): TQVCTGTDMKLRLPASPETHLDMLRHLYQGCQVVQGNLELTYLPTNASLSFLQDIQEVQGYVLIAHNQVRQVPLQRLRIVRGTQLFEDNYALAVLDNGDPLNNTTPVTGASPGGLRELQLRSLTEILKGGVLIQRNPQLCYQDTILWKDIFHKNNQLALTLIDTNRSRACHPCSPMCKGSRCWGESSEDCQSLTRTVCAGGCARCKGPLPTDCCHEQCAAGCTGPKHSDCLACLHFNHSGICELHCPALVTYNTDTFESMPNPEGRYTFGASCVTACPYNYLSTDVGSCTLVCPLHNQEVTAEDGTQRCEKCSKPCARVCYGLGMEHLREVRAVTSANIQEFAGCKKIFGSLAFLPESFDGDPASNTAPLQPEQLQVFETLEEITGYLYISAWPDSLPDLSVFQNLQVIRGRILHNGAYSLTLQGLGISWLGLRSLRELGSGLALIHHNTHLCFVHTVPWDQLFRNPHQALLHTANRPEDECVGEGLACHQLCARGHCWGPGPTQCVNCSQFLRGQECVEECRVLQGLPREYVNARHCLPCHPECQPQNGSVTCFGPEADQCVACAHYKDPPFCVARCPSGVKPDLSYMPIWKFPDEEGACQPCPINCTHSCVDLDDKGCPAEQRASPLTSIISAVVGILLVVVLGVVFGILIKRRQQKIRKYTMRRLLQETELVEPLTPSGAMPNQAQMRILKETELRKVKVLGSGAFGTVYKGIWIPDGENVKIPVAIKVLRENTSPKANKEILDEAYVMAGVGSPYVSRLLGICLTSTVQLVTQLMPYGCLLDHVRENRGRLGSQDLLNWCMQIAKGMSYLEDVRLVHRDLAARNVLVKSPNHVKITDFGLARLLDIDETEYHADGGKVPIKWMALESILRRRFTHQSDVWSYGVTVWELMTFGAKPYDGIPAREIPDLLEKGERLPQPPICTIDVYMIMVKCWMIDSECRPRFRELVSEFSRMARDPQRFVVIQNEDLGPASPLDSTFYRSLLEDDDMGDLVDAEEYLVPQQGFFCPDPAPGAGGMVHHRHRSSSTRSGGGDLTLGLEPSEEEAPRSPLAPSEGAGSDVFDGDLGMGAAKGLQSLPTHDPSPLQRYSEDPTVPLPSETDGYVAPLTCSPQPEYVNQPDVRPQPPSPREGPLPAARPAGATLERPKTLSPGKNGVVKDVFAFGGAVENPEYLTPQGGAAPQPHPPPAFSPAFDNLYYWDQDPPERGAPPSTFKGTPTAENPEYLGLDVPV

Structure (SMILES) | IC50 (ErbB2) [µM] | IC50 (AKT) [µM] | IC50 (EGFR) [µM] | IC50 (PDGFRB) [µM] | IC50 (Kdr) [µM] | IC50 (Zap-70) [µM] | IC50 (IGFR-1) [µM] | IC50 (Itk) [µM] | IC50 (Lck) [µM] | IC50 (c-Met) [µM]
NC(=O)Cc1cccc(Nc2ncnc(Nc3cccc(Br)c3)n2)c1 [Compound 966] | > 11.3 | > 11.3 | < 1 | < 1 | 1 to 6.01 | > 11.3 | < 1 | > 11.3 | 6.01 to 8.77 | > 11.3
COc1cc(Nc2ncnc(-c3cccnc3Nc3cccc(C(C)=O)c3)n2)cc(OC)c1OC [Compound 831] | > 9.52 | > 9.52 | > 9.52 | < 0.847 | > 9.52 | > 9.52 | > 9.52 | > 9.52 | > 9.52 | 5.08 to 7.41
O=C(O)CNC(=O)c1ccc(Nc2ncnc(Nc3cc(-c4ccco4)[nH]n3)n2)cc1 [Compound 884] | 0.951 to 5.71 | 0.951 to 5.71 | 0.951 to 5.71 | < 0.951 | < 0.951 | 5.71 to 8.33 | 0.951 to 5.71 | 0.951 to 5.71 | > 10.7 | 0.951 to 5.71
CCN(c1ncnc(Nc2cc(OC)c(OC)c(OC)c2)n1)c1cccc2ccccc12 [Compound 634] | 0.927 to 5.56 | 8.11 to 10.4 | < 0.927 | 8.11 to 10.4 | < 0.927 | > 10.4 | > 10.4 | > 10.4 | 0.927 to 5.56 | 5.56 to 8.11
Fc1ccc(CNc2ncccc2-c2ncnc(Nc3cccc(Cn4ccnn4)c3)n2)cc1 [Compound 1102] | > 9.92 | > 9.92 | 5.29 to 7.72 | < 0.882 | < 0.882 | 7.72 to 9.92 | > 9.92 | > 9.92 | > 9.92 | > 9.92
COc1ccc(Nc2ncnc(Nc3ccc4c(c3)C(=O)OC4)n2)cc1OC [Compound 894] | > 11.9 | > 11.9 | 6.33 to 9.23 | < 1.05 | 1.05 to 6.33 | > 11.9 | > 11.9 | 9.23 to 11.9 | > 11.9 | > 11.9
CNC(=O)c1cccc(Nc2ncnc(Nc3cc(-c4ccco4)[nH]n3)n2)c1 [Compound 826] | 1.06 to 6.38 | > 12 | < 1.06 | 1.06 to 6.38 | < 1.06 | > 12 | 1.06 to 6.38 | 1.06 to 6.38 | 1.06 to 6.38 | 1.06 to 6.38
COc1ccc(Nc2ncnc(N(C)c3ccc(Cl)cc3)n2)cc1OC [Compound 795] | < 1.08 | > 12.1 | < 1.08 | < 1.08 | 1.08 to 6.45 | > 12.1 | 9.41 to 12.1 | > 12.1 | 1.08 to 6.45 | < 1.08
COc1cccc(Nc2ncnc(Nc3ccc4c(cnn4Cc4ccccc4)c3)n2)c1 [Compound 904] | 0.945 to 5.67 | 8.26 to 10.6 | < 0.945 | 0.945 to 5.67 | 5.67 to 8.26 | > 10.6 | 5.67 to 8.26 | 8.26 to 10.6 | 0.945 to 5.67 | 0.945 to 5.67
COc1ccc(Nc2ncnc(Nc3ccc4c(c3)CCC4)n2)cc1OC [Compound 896] | 1.1 to 6.6 | 6.6 to 9.63 | 1.1 to 6.6 | < 1.1 | 6.6 to 9.63 | > 12.4 | 1.1 to 6.6 | 6.6 to 9.63 | > 12.4 | 1.1 to 6.6
COC(=O)c1cccc(Nc2ncnc(-n3c(NCc4ccc(OC)cc4)nc4ccccc43)n2)c1 [Compound 1068] | 4.98 to 7.27 | > 9.35 | > 9.35 |  | < 0.831 | > 9.35 | > 9.35 | > 9.35 | > 9.35 | > 9.35
COC(=O)c1ccc(N(C)c2ncnc(Nc3ccc(OC)c(OC)c3)n2)cc1 [Compound 864] | > 11.4 | > 11.4 | > 11.4 |  | 1.01 to 6.07 | > 11.4 | > 11.4 | > 11.4 | > 11.4 | < 1.01
COc1cc(Nc2ncnc(-c3cccnc3N[C@H](C)c3ccccc3)n2)cc(OC)c1OC [Compound 1110] | > 9.81 | > 9.81 | 0.872 to 5.23 |  | 5.23 to 7.63 | > 9.81 | > 9.81 | > 9.81 | < 0.872 | > 9.81
COc1ccc(Nc2ncnc(Nc3ccc4c(c3)C(=O)N(C)C4=O)n2)cc1OC [Compound 856] | 0.984 to 5.91 | > 11.1 | > 11.1 |  | > 11.1 | > 11.1 | 5.91 to 8.61 | > 11.1 | > 11.1 | > 11.1
CN(c1cccc(Cl)c1)c1ncnc(Nc2ccc(OCCO)cc2)n1 [Compound 641] | 1.08 to 6.45 | > 12.1 | < 1.08 |  | 1.08 to 6.45 | > 12.1 | 1.08 to 6.45 | > 12.1 | 1.08 to 6.45 | < 1.08
COc1cc(Nc2ncnc(Nc3cccc(Cl)c3)n2)cc(OC)c1 [Compound 723] | < 1.12 | 1.12 to 6.71 | < 1.12 |  | 1.12 to 6.71 | 1.12 to 6.71 | < 1.12 | 9.78 to 12.6 | 1.12 to 6.71 | 6.71 to 9.78
COc1ccc(Nc2ncnc(NCCc3ccc(Cl)c(Cl)c3)n2)cc1OC [Compound 859] | 0.952 to 5.71 | 0.952 to 5.71 | 0.952 to 5.71 |  | 5.71 to 8.33 | 0.952 to 5.71 | 5.71 to 8.33 | 0.952 to 5.71 | > 10.7 | 0.952 to 5.71
COC(=O)c1cccc(Nc2ncnc(-n3c(NCc4ccccc4)nc4ccccc43)n2)c1 [Compound 1067] | 0.886 to 5.32 | > 9.97 | 0.886 to 5.32 |  | < 0.886 | > 9.97 | > 9.97 | > 9.97 | > 9.97 | > 9.97
COc1ccc(Nc2ncnc(N(C)c3ccc([N+](=O)[O-])cc3)n2)cc1OC [Compound 862] | > 11.8 | > 11.8 | 1.05 to 6.28 |  | > 11.8 | > 11.8 | > 11.8 | > 11.8 | > 11.8 | < 1.05
COc1ccc(Nc2ncnc(NCc3ccc(C)c(Cl)c3)n2)cc1OC [Compound 793] |  | > 11.7 | > 11.7 | > 11.7 | > 11.7 | > 11.7 | > 11.7 | > 11.7 | > 11.7 | > 11.7
